Reference: US20150087677A1, “METHODS FOR TREATING VESTIBULOTOXICTY” (priority 2012, published 2015)

Experiments:
vestibular hair cells = assay type: cell-based, rat; conditions: co-treatment with cimetidine (1000 μM) and cisplatin for 48 hrs, FIG. 3
Description: Vestibular end organs were aseptically removed from animals. Explants composed of sensory and nonsensory epithelia were placed on 5 μl of growth factor-reduced Matrigel on laminin (10 μg/ml)-coated glass coverslips. These preparations were incubated for 30 min at 37° C. in a 95%/5% O2/CO2 atmosphere at saturating moisture. Explants were then cultured in DMEM and F12 (50%/50% v/v) media supplemented with N2 mixture (2%). The medium was renewed every 4 d. […] Treated cultures were then fixed with PAF 4% for 1 hr. Labeling of hair bundles was processed using Alex488-conjugated phalloidin (1:700) overnight. After rinsing with PBS, cultures were mounted in Moviol (Calbiochem). Labelling was observed and image digitalized using an apotome microscope (Zeiss). Hair bundles per utricle were quantified using ImageJ software. Statistical analysis was processed with SigmaPlot software (Systat Software). Final image processing was performed with Adobe Photoshop software.

[1] = test system: cisplatin induced vestibulotoxicity; experiment: Induced deficits of vestibular behavior after transtympanic cisplatin (vestibular deficit score); assay type: in vivo, rat; conditions: for time after the lesion at which protective effects are first observed: effects persist over the following days
Description: Vestibular deficit associated behaviors were scored on a scale from 0 to 4, respectively ranging from normal behavior (rating 0) to maximal identified vestibular impairment (rating 4). […] Rats were scored for vestibular deficits after transtympanic injection of cisplatin (50 μl, 2 mg/ml) and, evaluated from 4 to 336 hrs after the injection (FIG. 4). Scores were expressed as mean (±sem). For preventive treatment, injection of cimetidine (i.p., 12 mg/kg) was injected 4 hours before the transtympanic injection of cisplatin. Sham animals received saline (i.p) 4 hours before the lesion. To focus on the preventive action of transtympanic injection of the compounds of the invention in the first 72 hours, ototoxicity is induced by a transtympanic injection (50 μl) of cisplatin (2 mg/ml in saline; 6.7 mM) and a determined ratio of corresponding molar dose of compounds are premixed and injected transtympanically with cisplatin. For example, for the dose ratio 1/2 of compound/cisplatin, a solution of 3.5 mM of compound of interest in addition to the 6.7 mM of cisplatin in saline is prepared and, 50 μl of this mixed saline solution is injected transtympanically at TO. Different control animals are run in parallel: saline only, cisplatin (6.7 mM) only to control the initial lesion, and the compounds of interest alone at different doses in saline to control potential ototoxicity of the compound independently of cisplatin, are with cisplatin. […] For transtympanic experiments, rats were scored for vestibular deficits just before the transtympanic injection, TO and, evaluated at 24, 48 & 72 hours after the injection (FIGS. 5 to 11). Scores were expressed as mean (±sem).

[2] = transtympanic injection premixed with cisplatin, rats, FIGS. 5 to 11
[3] = transtympanic injection, FIGS. 5 to 11

Row | SMILES | effect on cisplatin-induced vestibular hair cell loss in vitro (vestibular hair cells) | effect on vestibular toxicity and behavioral deficits induced by cisplatin ([1]; adult rats, systemic (i.p., 12 mg/kg) pretreatment 4 hrs before transtympanic cisplatin, FIG. 4) | time after the lesion at which protective effects are first observed ([1]; systemic (i.p.) pretreatment t-4 hrs, FIG. 4) [h] | effect on vestibular toxicity and behavioral deficits induced by cisplatin [1, 2] | time after the lesion at which protective effects are first observed [1, 3] [h]
1 | CN/C(=N/CCSCc1nc[nH]c1C)NC#N [cimetidine] | reduces vestibular hair cell loss | reduces the vestibular toxicity and behavioral deficits | 48 | reduces the vestibular toxicity and behavioral deficits | 24
2 | Cc1c(OCC(F)(F)F)ccnc1C[S+]([O-])c1nc2ccccc2[nH]1 (stereo not shown) [lansoprazole] | – | – | – | reduces the vestibular toxicity and behavioral deficits | 24
3 | CNC(=C[N+](=O)[O-])NCCSCc1csc(CN(C)C)n1 [nizatidine] | – | – | – | reduces the vestibular toxicity and behavioral deficits | 24
4 | COc1ccc2[nH]c([S+]([O-])Cc3ncc(C)c(OC)c3C)nc2c1 (stereo not shown) [omeprazole] | – | – | – | – | 24
5 | COc1ccnc(C[S+]([O-])c2nc3ccc(OC(F)F)cc3[nH]2)c1OC (stereo not shown) [pantoprazole] | – | – | – | – | 24
6 | COCCCOc1ccnc(C[S+]([O-])c2nc3ccccc3[nH]2)c1C (stereo not shown) [rabeprazole] | – | – | – | – | 24
7 | CNC(=C[N+](=O)[O-])NCCSCc1ccc(CN(C)C)o1 [ranitidine] | – | – | – | – | 24
